According to publication PMC5241706, “Biochemical and Structural Characterization of Selective Allosteric Inhibitors of the Plasmodium falciparum Drug Target, Prolyl-tRNA-synthetase” (ACS Infectious Diseases, 2016):
pEC50, pIC50: −log10 of the molar value. Where two headings read alike, the source gives them in different places.

Key:
PfProRS = biological target: T1, PfProRS (Plasmodium falciparum, UniProt Q8I5R7); experiment: luciferase ATP depletion assay, HTS format; assay type: biochemical
T1 construct: B2, AA7–746 (minus 6 amino acids, or 99% of the ORF); made in house; host or cells: E. coli BL21(DE3)R3 Rosetta Oxford
T1 sequence (Q8I5R7 7-746): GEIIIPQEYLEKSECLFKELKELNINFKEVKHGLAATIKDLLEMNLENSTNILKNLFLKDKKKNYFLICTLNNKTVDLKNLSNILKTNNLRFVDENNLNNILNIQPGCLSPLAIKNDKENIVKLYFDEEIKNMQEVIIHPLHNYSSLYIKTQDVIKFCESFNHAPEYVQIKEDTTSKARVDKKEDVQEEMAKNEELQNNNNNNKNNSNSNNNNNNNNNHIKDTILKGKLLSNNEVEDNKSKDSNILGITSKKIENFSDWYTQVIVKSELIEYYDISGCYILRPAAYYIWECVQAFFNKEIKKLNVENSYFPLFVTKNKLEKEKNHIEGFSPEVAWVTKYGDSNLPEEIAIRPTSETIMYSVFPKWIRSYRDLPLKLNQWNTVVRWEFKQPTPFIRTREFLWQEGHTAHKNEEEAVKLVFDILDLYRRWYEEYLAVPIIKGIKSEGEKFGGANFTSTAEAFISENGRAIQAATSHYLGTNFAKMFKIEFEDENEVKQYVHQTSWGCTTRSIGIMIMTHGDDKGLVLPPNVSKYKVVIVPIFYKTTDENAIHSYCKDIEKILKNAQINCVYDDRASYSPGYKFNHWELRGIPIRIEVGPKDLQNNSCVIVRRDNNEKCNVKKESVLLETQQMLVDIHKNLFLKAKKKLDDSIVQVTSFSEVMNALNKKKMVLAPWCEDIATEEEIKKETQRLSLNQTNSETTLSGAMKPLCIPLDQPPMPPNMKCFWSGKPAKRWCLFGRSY

HsProRS = biological target: T2, HsProRS (Homo sapiens, UniProt P07814); experiment: luciferase ATP depletion assay, counter-screen; assay type: biochemical; settings: for inhibition at 1.46 µM: at 1.46 μM (750 μM series); for inhibition at 187.5 µM: at 187.50 μM
T2 construct: made in house
T2 sequence (P07814 1007-1512 limits assumed): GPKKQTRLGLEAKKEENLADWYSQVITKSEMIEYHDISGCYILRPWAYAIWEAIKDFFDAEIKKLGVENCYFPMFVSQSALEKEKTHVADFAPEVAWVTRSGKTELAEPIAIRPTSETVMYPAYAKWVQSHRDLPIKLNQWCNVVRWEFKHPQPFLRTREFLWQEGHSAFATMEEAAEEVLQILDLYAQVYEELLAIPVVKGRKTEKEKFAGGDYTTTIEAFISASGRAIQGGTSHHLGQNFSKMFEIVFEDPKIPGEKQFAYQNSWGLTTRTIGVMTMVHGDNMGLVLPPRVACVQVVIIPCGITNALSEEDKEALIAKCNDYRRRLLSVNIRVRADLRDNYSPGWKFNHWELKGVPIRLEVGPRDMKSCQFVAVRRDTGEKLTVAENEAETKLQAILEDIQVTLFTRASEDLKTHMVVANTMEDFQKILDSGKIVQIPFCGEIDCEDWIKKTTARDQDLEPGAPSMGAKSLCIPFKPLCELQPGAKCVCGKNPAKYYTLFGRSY

[1] = tested on: Plasmodium falciparum strain 3D7; experiment: Plasmodium falciparum growth inhibition, SYBR green fluorescence; assay type: cell-based; settings: P. falciparum 3D7, read-out: potency range (drug control)
[2] = read-out: Percentage inhibition Pf ProRS
[3] = read-out: Percentage inhibition Hs ProRS

SMILES: COc1ccc(Cl)cc1C(=O)NCCc1ccc(S(=O)(=O)NC(=O)NC2CCCCC2)cc1 [glyburide]
- pIC50 (PfProRS; PfProRS IC50, 75 nM ProRS, 60 μM proline, 6 μM ATP, 400 μg/mL yeast tRNA, 2 h 37 °C): 4.47
- inhibition at 0.73 µM (PfProRS; [2]): 1.32%
- inhibition at 1.46 µM (PfProRS; [2]): 1.82%
- inhibition at 2.93 µM (PfProRS; [2]): 6.24%
- inhibition at 5.86 µM (PfProRS; [2]): 12.4%
- inhibition at 11.72 µM (PfProRS; [2]): 23.8%
- inhibition at 23.44 µM (PfProRS; [2]): 39.7%
- inhibition at 46.88 µM (PfProRS; [2]): 60%
- inhibition at 93.75 µM (PfProRS; [2]): 81.4%
- inhibition at 187.5 µM (PfProRS; [2]): 87%
- inhibition at 375 µM (PfProRS; [2]): 94%
- inhibition at 750 µM (PfProRS; [2]): 102%
- pIC50 (HsProRS): < 3.15
- inhibition at 0.73 µM (HsProRS; [3]): 0.05%
- inhibition at 1.46 µM (HsProRS; [3]): 0.03%
- inhibition at 2.93 µM (HsProRS; [3]): -0.04%
- inhibition at 5.86 µM (HsProRS; [3]): 0.29%
- inhibition at 11.72 µM (HsProRS; [3]): 0.01%
- inhibition at 23.44 µM (HsProRS; [3]): 0.12%
- inhibition at 46.88 µM (HsProRS; [3]): 0.36%
- inhibition at 93.75 µM (HsProRS; [3]): 1.41%
- inhibition at 187.5 µM (HsProRS; [3]): 4.93%
- inhibition at 375 µM (HsProRS; [3]): 15.1%
- inhibition at 750 µM (HsProRS; [3]): 36.1%
- inhibitory activity for HsProRS (HsProRS; up to the limit of solubility (>1 mM)): < 40%

SMILES: O=C(CCn1cncn1)N1CCCC(c2[nH]c3ccccc3c2-c2ccncc2)C1 (stereo not shown) [TCMDC-125377]
- inhibition at 0.28 µM (PfProRS; at 0.28 μM, read-out: Percentage inhibition Pf ProRS): 6.8%
- inhibition at 0.03 µM (PfProRS; [2]): 1.17%
- inhibition at 0.09 µM (PfProRS; [2]): 2.41%
- inhibition at 0.83 µM (PfProRS; [2]): 15.4%
- inhibition at 2.5 µM (PfProRS; [2]): 24.7%
- inhibition at 7.5 µM (PfProRS; [2]): 33.9%
- inhibition at 22.5 µM (PfProRS; [2]): 40.1%
- inhibition at 0.03 µM (HsProRS; at 0.03 μM (22.50 μM series), read-out: Percentage inhibition Hs ProRS): 0.18%
- inhibition at 0.09 µM (HsProRS; at 0.09 μM, read-out: Percentage inhibition Hs ProRS): -0.1%
- inhibition at 0.28 µM (HsProRS; at 0.28 μM, read-out: Percentage inhibition Hs ProRS): -0.22%
- inhibition at 0.83 µM (HsProRS; at 0.83 μM, read-out: Percentage inhibition Hs ProRS): -0.91%
- inhibition at 2.5 µM (HsProRS; at 2.50 μM (22.50 μM series), read-out: Percentage inhibition Hs ProRS): -0.37%
- inhibition at 7.5 µM (HsProRS; at 7.50 μM, read-out: Percentage inhibition Hs ProRS): 0.2%
- inhibition at 22.5 µM (HsProRS; at 22.50 μM, read-out: Percentage inhibition Hs ProRS): 0.03%

SMILES: N#CC(c1ccc(Cl)cc1)c1c(Cl)cc(-n2ncc(=O)[nH]c2=O)cc1Cl (stereo not shown) [diclazuril]
- inhibition at 0.49 µM (PfProRS; [2]): 0.21%
- inhibition at 0.98 µM (PfProRS; [2]): -1.18%
- inhibition at 1.95 µM (PfProRS; [2]): -0.74%
- inhibition at 3.91 µM (PfProRS; [2]): -0.59%
- inhibition at 7.81 µM (PfProRS; [2]): 2.35%
- inhibition at 15.63 µM (PfProRS; [2]): 2.75%
- inhibition at 31.25 µM (PfProRS; [2]): 7.77%
- inhibition at 62.5 µM (PfProRS; [2]): 19.5%
- inhibition at 125 µM (PfProRS; [2]): 43%
- inhibition at 250 µM (PfProRS; [2]): 73.7%
- inhibition at 500 µM (PfProRS; [2]): 80.2%
- inhibition at 0.49 µM (HsProRS; at 0.49 μM, read-out: Percentage inhibition Hs ProRS): 0.05%
- inhibition at 0.98 µM (HsProRS; at 0.98 μM, read-out: Percentage inhibition Hs ProRS): -0.02%
- inhibition at 1.95 µM (HsProRS; at 1.95 μM, read-out: Percentage inhibition Hs ProRS): 0.08%
- inhibition at 3.91 µM (HsProRS; at 3.91 μM, read-out: Percentage inhibition Hs ProRS): 0.28%
- inhibition at 7.81 µM (HsProRS; at 7.81 μM, read-out: Percentage inhibition Hs ProRS): 0.42%
- inhibition at 15.63 µM (HsProRS; at 15.63 μM, read-out: Percentage inhibition Hs ProRS): 0.09%
- inhibition at 31.25 µM (HsProRS; at 31.25 μM, read-out: Percentage inhibition Hs ProRS): 0.4%
- inhibition at 62.5 µM (HsProRS; at 62.50 μM, read-out: Percentage inhibition Hs ProRS): 0.07%
- inhibition at 125 µM (HsProRS; at 125 μM, read-out: Percentage inhibition Hs ProRS): 0.68%
- inhibition at 250 µM (HsProRS; at 250 μM, read-out: Percentage inhibition Hs ProRS): 5.06%
- inhibition at 500 µM (HsProRS; at 500 μM, read-out: Percentage inhibition Hs ProRS): 9.51%

SMILES: CCCc1nc2c(C)cc(-c3nc4ccccc4n3C)cc2n1Cc1ccc(-c2ccccc2C(=O)O)cc1 [telmisartan]
- inhibition at 0.73 µM (PfProRS; [2]): -0.36%
- inhibition at 1.46 µM (PfProRS; [2]): -0.06%
- inhibition at 2.93 µM (PfProRS; [2]): -0.17%
- inhibition at 5.86 µM (PfProRS; [2]): -0.08%
- inhibition at 11.72 µM (PfProRS; [2]): 2.19%
- inhibition at 23.44 µM (PfProRS; [2]): 3.94%
- inhibition at 46.88 µM (PfProRS; [2]): 13.4%
- inhibition at 93.75 µM (PfProRS; [2]): 48.8%
- inhibition at 187.5 µM (PfProRS; [2]): 80.8%
- inhibition at 375 µM (PfProRS; [2]): 15.5%
- inhibition at 750 µM (PfProRS; [2]): 11.8%
- inhibition at 0.73 µM (HsProRS; [3]): 0.44%
- inhibition at 1.46 µM (HsProRS; [3]): 0.05%
- inhibition at 2.93 µM (HsProRS; [3]): 0.04%
- inhibition at 5.86 µM (HsProRS; [3]): -0.1%
- inhibition at 11.72 µM (HsProRS; [3]): 0.01%
- inhibition at 23.44 µM (HsProRS; [3]): 0%
- inhibition at 46.88 µM (HsProRS; [3]): -0.02%
- inhibition at 93.75 µM (HsProRS; [3]): 0.37%
- inhibition at 187.5 µM (HsProRS; [3]): 4.23%
- inhibition at 375 µM (HsProRS; [3]): 0.25%
- inhibition at 750 µM (HsProRS; [3]): 0.58%

SMILES: OC(c1cc(C(F)(F)F)nc2c(C(F)(F)F)cccc12)C1CCCCN1 (stereo not shown) [Mefloquine, reference compound]
- pEC50 [1]: 7.22 to 7.52

SMILES: CCn1nc(-c2ccc(C(=O)OC)cc2)nc2c(=O)n(C)c(=O)nc1-2 [MMV306025]
- inhibition at 0.03 µM (PfProRS; [2]): -0.55%
- inhibition at 0.06 µM (PfProRS; [2]): -0.04%
- inhibition at 0.12 µM (PfProRS; [2]): 0.62%
- inhibition at 0.23 µM (PfProRS; [2]): 4.5%
- inhibition at 0.47 µM (PfProRS; [2]): 21.8%
- inhibition at 0.94 µM (PfProRS; [2]): 28.4%
- inhibition at 1.88 µM (PfProRS; [2]): 30%
- inhibition at 2.5 µM (PfProRS; [2]): 72.8%
- inhibition at 0.03 µM (HsProRS; at 0.03 μM (MMV306025 series), read-out: Percentage inhibition Hs ProRS): 0.3%
- inhibition at 0.06 µM (HsProRS; at 0.06 μM, read-out: Percentage inhibition Hs ProRS): -0.07%
- inhibition at 0.12 µM (HsProRS; at 0.12 μM (MMV306025 series), read-out: Percentage inhibition Hs ProRS): 0.1%
- inhibition at 0.23 µM (HsProRS; at 0.23 μM, read-out: Percentage inhibition Hs ProRS): 0.67%
- inhibition at 0.47 µM (HsProRS; at 0.47 μM, read-out: Percentage inhibition Hs ProRS): 4.1%
- inhibition at 0.94 µM (HsProRS; at 0.94 μM, read-out: Percentage inhibition Hs ProRS): 14.9%
- inhibition at 1.88 µM (HsProRS; at 1.88 μM, read-out: Percentage inhibition Hs ProRS): 21.6%

SMILES: Cc1c(Nc2ncccc2C(=O)O)cccc1C(F)(F)F [flunixin meglumine]
- inhibition at 0.73 µM (PfProRS; [2]): 0.6%
- inhibition at 1.46 µM (PfProRS; [2]): -0.28%
- inhibition at 2.93 µM (PfProRS; [2]): -0.7%
- inhibition at 5.86 µM (PfProRS; [2]): -0.41%
- inhibition at 11.72 µM (PfProRS; [2]): 1.63%
- inhibition at 23.44 µM (PfProRS; [2]): 2.17%
- inhibition at 46.88 µM (PfProRS; [2]): 11.4%
- inhibition at 93.75 µM (PfProRS; [2]): 30.7%
- inhibition at 187.5 µM (PfProRS; [2]): 62%
- inhibition at 375 µM (PfProRS; [2]): 87.1%
- inhibition at 750 µM (PfProRS; [2]): 99.8%
- inhibition at 0.73 µM (HsProRS; [3]): 0.21%
- inhibition at 1.46 µM (HsProRS; [3]): 0.19%
- inhibition at 2.93 µM (HsProRS; [3]): 0.2%
- inhibition at 5.86 µM (HsProRS; [3]): 0.17%
- inhibition at 11.72 µM (HsProRS; [3]): 0.37%
- inhibition at 23.44 µM (HsProRS; [3]): 0.52%
- inhibition at 46.88 µM (HsProRS; [3]): 0.27%
- inhibition at 93.75 µM (HsProRS; [3]): -0.02%
- inhibition at 187.5 µM (HsProRS; [3]): 0.03%
- inhibition at 375 µM (HsProRS; [3]): 0.43%
- inhibition at 750 µM (HsProRS; [3]): 1.37%
